Data from ChEMBL document CHEMBL1821689, “1,6-Disubstituted indole derivatives as selective human neuronal nitric oxide synthase inhibitors” (Bioorg Med Chem Lett, 2011).
Activity calls are given as the source filed them. The rule behind the calls is not given here.

Assays:
Nitric oxide synthase 3 = biological target: T1, Nitric oxide synthase 3 (Homo sapiens, UniProt P29474); assay: Inhibition of recombinant human eNOS expressed in baculovirus infected insect Sf9 cells assessed as conversion of [3H]-L-arginine into [3H]-L-citrulline by radiometric method
T1 sequence (P29474 whole entry): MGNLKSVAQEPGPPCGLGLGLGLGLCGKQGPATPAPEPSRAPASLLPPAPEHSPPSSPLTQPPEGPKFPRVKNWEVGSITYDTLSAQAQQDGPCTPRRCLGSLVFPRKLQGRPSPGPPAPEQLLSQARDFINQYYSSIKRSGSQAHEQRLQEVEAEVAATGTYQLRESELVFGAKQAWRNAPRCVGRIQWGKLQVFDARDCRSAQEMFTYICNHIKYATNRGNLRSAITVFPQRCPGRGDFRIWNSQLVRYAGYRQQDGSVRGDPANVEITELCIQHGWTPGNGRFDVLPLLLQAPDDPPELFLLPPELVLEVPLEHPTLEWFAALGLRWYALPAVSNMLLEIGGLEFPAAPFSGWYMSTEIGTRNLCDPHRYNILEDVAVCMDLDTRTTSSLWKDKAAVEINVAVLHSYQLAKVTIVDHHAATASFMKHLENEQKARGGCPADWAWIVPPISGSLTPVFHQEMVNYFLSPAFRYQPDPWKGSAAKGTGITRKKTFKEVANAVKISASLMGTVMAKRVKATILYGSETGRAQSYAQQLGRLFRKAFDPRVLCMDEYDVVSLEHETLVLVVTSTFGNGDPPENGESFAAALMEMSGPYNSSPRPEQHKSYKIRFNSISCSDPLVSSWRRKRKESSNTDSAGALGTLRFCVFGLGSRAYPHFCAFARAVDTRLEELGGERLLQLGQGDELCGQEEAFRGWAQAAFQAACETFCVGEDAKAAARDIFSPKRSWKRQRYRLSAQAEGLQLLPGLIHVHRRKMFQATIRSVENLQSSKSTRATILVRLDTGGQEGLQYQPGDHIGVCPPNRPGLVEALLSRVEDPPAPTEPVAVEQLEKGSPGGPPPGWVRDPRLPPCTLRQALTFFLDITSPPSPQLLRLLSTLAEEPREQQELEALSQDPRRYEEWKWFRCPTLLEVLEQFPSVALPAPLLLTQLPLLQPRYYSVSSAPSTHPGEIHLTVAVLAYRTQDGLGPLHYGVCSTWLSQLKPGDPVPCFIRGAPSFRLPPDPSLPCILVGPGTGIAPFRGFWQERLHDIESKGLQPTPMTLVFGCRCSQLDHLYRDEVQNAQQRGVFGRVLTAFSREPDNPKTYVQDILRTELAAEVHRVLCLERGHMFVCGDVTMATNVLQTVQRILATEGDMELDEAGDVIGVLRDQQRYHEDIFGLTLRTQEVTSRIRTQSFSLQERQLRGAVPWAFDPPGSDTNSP

[1] = biological target: Nitric oxide synthase, inducible (Homo sapiens, UniProt P35228); assay: Inhibition of recombinant human iNOS expressed in baculovirus infected insect Sf9 cells assessed as conversion of [3H]-L-arginine into [3H]-L-citrulline by radiometric method
Nitric oxide synthase 1 = Nitric oxide synthase 1 (Homo sapiens, UniProt P29475); assay: Inhibition of recombinant human nNOS expressed in baculovirus infected insect Sf9 cells assessed as conversion of [3H]-L-arginine into [3H]-L-citrulline by radiometric method
Homo sapiens = species on record: Homo sapiens; assay: Selectivity ratio of IC50 for recombinant human eNOS to IC50 for recombinant human nNOS
[2] = biological target: Nitric oxide sythases; iNOS & nNOS (Homo sapiens) (UniProt P29475+P35228); assay: Selectivity ratio of IC50 for recombinant human iNOS to IC50 for recombinant human nNOS
Rattus norvegicus [3] = assay: Antiallodynic activity in Sprague-Dawley rat model of migraine pain assessed as attenuation of cutaneous allodynia in the hind-paws at 30 mg/kg, po administered 15 mins prior to application of inflammatory soup measured between 2 to 6 hrs; format: functional, organism-based; parameters: dose 30 mg/kg
Rattus norvegicus [4] = assay: Antiallodynic activity in Sprague-Dawley rat model of migraine pain assessed as attenuation of cutaneous allodynia in the hind-paws at 30 mg/kg, po administered 15 mins prior to application of inflammatory soup measured at 4 hrs; format: functional, organism-based; parameters: dose 30 mg/kg

Chain of Nitric oxide synthase, inducible (P35228 whole entry): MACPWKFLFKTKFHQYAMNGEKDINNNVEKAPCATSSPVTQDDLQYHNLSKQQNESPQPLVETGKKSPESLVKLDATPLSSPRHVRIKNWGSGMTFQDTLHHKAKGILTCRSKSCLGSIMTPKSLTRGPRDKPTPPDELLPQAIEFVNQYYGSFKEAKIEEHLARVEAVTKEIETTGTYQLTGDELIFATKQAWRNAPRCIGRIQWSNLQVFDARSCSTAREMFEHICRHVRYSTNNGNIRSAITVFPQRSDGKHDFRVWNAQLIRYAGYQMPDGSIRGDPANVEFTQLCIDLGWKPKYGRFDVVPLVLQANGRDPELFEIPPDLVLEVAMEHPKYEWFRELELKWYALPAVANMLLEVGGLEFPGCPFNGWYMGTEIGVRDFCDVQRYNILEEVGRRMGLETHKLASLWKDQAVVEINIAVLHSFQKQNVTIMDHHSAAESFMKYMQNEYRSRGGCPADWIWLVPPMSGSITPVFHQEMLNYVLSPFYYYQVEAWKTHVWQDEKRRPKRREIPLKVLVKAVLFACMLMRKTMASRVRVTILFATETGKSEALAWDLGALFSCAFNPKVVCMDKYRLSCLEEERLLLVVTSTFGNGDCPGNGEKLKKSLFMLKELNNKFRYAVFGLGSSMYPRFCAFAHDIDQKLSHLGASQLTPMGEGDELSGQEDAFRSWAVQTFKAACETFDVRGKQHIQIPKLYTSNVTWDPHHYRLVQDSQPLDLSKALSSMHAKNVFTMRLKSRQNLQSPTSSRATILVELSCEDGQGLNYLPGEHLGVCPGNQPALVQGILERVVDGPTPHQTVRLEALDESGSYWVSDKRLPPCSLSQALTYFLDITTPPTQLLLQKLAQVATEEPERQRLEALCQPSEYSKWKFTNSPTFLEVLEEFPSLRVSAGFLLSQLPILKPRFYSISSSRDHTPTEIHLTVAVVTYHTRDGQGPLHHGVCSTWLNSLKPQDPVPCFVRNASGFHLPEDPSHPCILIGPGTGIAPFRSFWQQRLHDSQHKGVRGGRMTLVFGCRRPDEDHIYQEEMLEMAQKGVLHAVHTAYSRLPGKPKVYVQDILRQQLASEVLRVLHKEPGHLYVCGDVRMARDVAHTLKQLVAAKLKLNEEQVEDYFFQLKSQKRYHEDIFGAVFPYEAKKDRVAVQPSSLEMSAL
Chain of Nitric oxide synthase 1 (P29475 whole entry): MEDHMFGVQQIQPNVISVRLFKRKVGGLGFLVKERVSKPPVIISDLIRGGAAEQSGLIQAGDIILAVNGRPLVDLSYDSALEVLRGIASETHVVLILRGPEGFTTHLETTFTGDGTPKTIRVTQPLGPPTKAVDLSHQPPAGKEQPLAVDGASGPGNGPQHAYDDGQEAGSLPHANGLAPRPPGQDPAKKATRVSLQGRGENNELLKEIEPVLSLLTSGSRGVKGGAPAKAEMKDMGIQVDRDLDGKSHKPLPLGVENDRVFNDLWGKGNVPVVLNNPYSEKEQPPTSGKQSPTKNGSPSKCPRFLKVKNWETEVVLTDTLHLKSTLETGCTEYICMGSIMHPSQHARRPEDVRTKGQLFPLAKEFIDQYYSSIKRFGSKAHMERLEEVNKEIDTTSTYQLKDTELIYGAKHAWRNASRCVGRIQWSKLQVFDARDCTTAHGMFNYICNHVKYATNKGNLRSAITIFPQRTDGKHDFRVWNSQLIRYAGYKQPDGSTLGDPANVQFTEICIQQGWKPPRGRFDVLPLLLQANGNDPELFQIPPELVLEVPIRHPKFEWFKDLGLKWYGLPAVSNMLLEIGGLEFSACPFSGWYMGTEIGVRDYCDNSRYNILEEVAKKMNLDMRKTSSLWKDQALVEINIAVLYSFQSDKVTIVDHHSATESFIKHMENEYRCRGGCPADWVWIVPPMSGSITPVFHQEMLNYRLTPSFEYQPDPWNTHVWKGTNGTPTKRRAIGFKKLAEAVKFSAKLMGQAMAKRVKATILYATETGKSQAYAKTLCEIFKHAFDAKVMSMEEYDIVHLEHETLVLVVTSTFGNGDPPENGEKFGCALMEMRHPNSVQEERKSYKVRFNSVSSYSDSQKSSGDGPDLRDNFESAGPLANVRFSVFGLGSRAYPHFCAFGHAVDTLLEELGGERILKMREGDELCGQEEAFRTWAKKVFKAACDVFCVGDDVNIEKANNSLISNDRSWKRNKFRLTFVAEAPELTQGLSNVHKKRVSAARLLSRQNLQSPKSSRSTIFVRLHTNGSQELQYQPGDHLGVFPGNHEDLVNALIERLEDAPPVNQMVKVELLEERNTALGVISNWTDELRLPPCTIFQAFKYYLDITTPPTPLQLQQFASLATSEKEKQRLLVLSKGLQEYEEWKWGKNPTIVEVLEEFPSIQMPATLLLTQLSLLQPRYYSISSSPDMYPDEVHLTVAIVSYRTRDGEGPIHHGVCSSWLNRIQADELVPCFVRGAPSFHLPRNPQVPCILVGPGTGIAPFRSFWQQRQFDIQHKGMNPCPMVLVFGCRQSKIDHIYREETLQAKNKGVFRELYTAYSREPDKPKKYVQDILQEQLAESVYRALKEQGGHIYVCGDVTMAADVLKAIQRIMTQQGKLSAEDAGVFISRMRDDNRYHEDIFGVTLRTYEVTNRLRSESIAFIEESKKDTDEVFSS
Chain of Nitric oxide sythases; iNOS & nNOS (Homo sapiens) (P29475 whole entry, looked up): as the sequence (P29475 whole entry) above
Chain of Nitric oxide sythases; iNOS & nNOS (Homo sapiens) (P35228 whole entry, looked up): as the sequence (P35228 whole entry) above

IC50 (Nitric oxide synthase 3) | IC50 [1] | Ratio IC50 (Homo sapiens) | Ratio IC50 [2] | Compound | also measured
23 µM | > 100 µM | – | – | N=C(Nc1ccc2ccn(CCCCn3ccnc3)c2c1)c1cccs1 | –
2.53 µM | 66 µM | – | – | CN(C)CCCCn1ccc2ccc(NC(=N)c3cccs3)cc21 | IC50 (Nitric oxide synthase 1): 0.26 µM
– | – | 19 | – | N/C(=N\c1ccc2ccn(CCCCn3ccnc3)c2c1)c1cccs1 | –
– | – | 19 | – | N/C(=N\c1ccc2ccn(CCCN3CCOCC3)c2c1)c1ccoc1 | –
– | – | – | – | CCN(CC)CCCn1ccc2ccc(NC(=N)c3cccs3)cc21 | IC50 (Nitric oxide synthase 1): 0.15 µM
– | 60 µM | – | – | CN(C)CCn1ccc2ccc(N=C(N)c3cccs3)cc21 | –
23.3 µM | – | – | – | CN(C)CCCn1ccc2ccc(NC(=N)c3cccs3)cc21 | –
11.8 µM | – | – | – | CNCCCn1ccc2ccc(NC(=N)c3cccs3)cc21 | –
– | – | 14 | 15 | N/C(=N\c1ccc2ccn(CCCN3CCOCC3)c2c1)c1ccco1 | –
– | – | 8 | 43 | N/C(=N\c1ccc2ccn(CCN3CCCCC3)c2c1)c1cccs1 | –
– | 72 µM | 50 | 225 | CN1CCC[C@@H]1CCn1ccc2ccc(/N=C(\N)c3cccs3)cc21 | Activity (Rattus norvegicus [3]): Active; Activity (Rattus norvegicus [4]): Active
30.6 µM | 1.2 µM | 59 | 2 | CN1CCCC(n2ccc3ccc(NC(=N)c4ccco4)cc32)CC1 (stereo not drawn) | IC50 (Nitric oxide synthase 1): 0.52 µM
– | 72 µM | 120 | 360 | CN1CCC[C@H]1CCn1ccc2ccc(/N=C(\N)c3cccs3)cc21 | –
– | 36 µM | – | – | N=C(Nc1ccc2ccn(CCCN3CCOCC3)c2c1)c1ccco1 | –
– | – | 68 | – | CCN(CC)CCCn1ccc2ccc(/N=C(\N)c3cccs3)cc21 | –
19 µM | 68 µM | – | – | CN1CCCC1CCn1ccc2ccc(NC(=N)c3cccs3)cc21 (racemic) | IC50 (Nitric oxide synthase 1): 0.22 µM
– | > 100 µM | – | – | N=C(Nc1ccc2ccn(CCCN3CCOCC3)c2c1)c1ccoc1 | –
– | – | 25 | – | N/C(=N\c1ccc2ccn(CCCN3CCCC3)c2c1)c1cccs1 | –
– | 70 µM | – | – | N=C(Nc1ccc2ccn(CCCN3CCOCC3)c2c1)c1ccsc1 | –
28.3 µM | 82 µM | – | – | N=C(Nc1ccc2ccn(CCCN3CCOCC3)c2c1)c1cccs1 | IC50 (Nitric oxide synthase 1): 0.7 µM
37.7 µM | – | – | – | CN1CCCC(n2ccc3ccc(NC(=N)c4cccs4)cc32)CC1 (stereo not drawn) | –
– | – | 43 | – | CN1CCCC(n2ccc3ccc(/N=C(\N)c4cccs4)cc32)CC1 (stereo not drawn) | –
– | – | 6 | – | CNCCCn1ccc2ccc(/N=C(\N)c3cccs3)cc21 | –
– | – | 10 | 254 | CN(C)CCCCn1ccc2ccc(/N=C(\N)c3cccs3)cc21 | –
– | 21 µM | – | – | N=C(Nc1ccc2ccn(CCN3CCCCC3)c2c1)c1cccs1 | –
– | – | 12.1 | 50 | N/C(=N\c1ccc2ccn(CCCN3CCOCC3)c2c1)c1ccsc1 | –
11.2 µM | – | – | – | N=C(Nc1ccc2ccn(CCCN3CCCC3)c2c1)c1cccs1 | IC50 (Nitric oxide synthase 1): 0.45 µM
– | – | 40 | 117 | N/C(=N\c1ccc2ccn(CCCN3CCOCC3)c2c1)c1cccs1 | –
– | – | 86 | 309 | CN1CCCC1CCn1ccc2ccc(/N=C(\N)c3cccs3)cc21 (racemic) | –
